The results in this text go back to the Kinase Knowledgebase extract (Sharma et al. 2016).

Bounds are passed on as bounds.

Sequence of EGFR (human) (P00533 whole entry, looked up): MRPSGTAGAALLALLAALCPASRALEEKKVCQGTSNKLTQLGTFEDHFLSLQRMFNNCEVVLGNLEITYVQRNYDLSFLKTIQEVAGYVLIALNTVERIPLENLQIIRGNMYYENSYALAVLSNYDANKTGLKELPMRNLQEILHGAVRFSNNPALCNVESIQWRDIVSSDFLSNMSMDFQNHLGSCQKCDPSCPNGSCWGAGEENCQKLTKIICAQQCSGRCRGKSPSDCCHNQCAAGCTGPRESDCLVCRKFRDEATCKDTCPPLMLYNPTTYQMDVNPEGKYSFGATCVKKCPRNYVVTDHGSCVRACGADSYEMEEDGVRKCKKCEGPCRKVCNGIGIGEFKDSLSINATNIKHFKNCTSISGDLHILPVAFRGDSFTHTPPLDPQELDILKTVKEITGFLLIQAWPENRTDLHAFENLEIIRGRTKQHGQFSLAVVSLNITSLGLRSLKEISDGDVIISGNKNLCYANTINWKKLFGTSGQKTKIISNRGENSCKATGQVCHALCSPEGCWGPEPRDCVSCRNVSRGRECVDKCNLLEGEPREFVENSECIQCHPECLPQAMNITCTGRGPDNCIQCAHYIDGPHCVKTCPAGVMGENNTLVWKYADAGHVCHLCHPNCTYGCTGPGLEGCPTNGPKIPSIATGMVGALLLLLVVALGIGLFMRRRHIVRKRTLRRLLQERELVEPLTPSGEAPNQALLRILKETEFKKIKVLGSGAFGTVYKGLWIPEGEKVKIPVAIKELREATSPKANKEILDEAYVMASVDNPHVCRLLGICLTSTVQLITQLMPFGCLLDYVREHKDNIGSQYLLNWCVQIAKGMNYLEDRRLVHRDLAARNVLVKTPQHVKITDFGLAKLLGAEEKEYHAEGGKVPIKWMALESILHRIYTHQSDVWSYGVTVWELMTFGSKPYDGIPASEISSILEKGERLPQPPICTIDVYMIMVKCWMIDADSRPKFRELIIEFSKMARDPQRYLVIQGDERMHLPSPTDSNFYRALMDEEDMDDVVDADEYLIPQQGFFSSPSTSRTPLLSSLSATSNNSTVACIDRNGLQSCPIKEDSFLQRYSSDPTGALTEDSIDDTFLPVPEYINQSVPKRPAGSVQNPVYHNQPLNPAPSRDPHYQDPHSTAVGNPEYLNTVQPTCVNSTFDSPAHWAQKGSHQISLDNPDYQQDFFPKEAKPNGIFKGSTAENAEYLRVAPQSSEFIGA

The assay concerns the target EGFR (human) (UniProt P00533).
A word on the IC50: it is the concentration that inhibits the measured activity by half. `CCOc1ccc(Nc2nccc(-c3sc(N4CCCC4)nc3-c3cccc(NS(=O)(=O)c4c(F)cccc4F)c3)n2)cc1N1CCN(CCS(C)(=O)=O)CC1`: the IC50 was < 100 nM.
Regarding `COc1cc(N2CCC3(CC2)CCN(S(C)(=O)=O)CC3)c(C)cc1Nc1nccc(-c2sc(C(C)C)nc2-c2cccc(NS(=O)(=O)c3c(F)cccc3F)c2F)n1`, the IC50 lay within 100 to 1000 nM.
`CCNc1nc(-c2cccc(NS(=O)(=O)c3ccccc3)c2)c(-c2ccnc(Nc3ccc(OCCN4CCCC4)c(F)c3)n2)s1`: the IC50 was < 100 nM.
On to `COc1ccc(S(C)(=O)=O)cc1Nc1nccc(-c2sc(C(C)C)nc2-c2cccc(NS(=O)(=O)c3c(F)cccc3F)c2F)n1`, for which the IC50 fell in the range of 100 to 1000 nM.
As for `CC(C)c1nc(-c2cccc(NS(=O)(=O)c3c(F)cccc3F)c2)c(-c2ccnc(Nc3ccc(OC4CCN(CCS(C)(=O)=O)CC4)c(F)c3)n2)s1`, the IC50 was in the range of 100 to 1000 nM.
As for `CC(C)c1nc(-c2ccc(F)c(NS(=O)(=O)c3c(F)cccc3F)c2)c(-c2ccnc(Nc3ccc(N4CCN(CCS(C)(=O)=O)CC4)c(F)c3)n2)s1`, the figure is 100 to 1000 nM; as for `CCNc1nc(-c2cccc(NS(=O)(=O)c3c(F)cccc3F)c2)c(-c2ccnc(Nc3cc(C)c(N4CCN(CCS(C)(=O)=O)CC4)cc3OC)n2)s1`, < 100 nM; as for `O=S(=O)(Nc1cccc(-c2nc(N3CCOCC3)sc2-c2ccnc(Nc3ccc(N4CCOCC4)nc3)n2)c1F)c1c(F)cccc1F`, 100 to 1000 nM.
On to `CCc1nc(-c2cccc(CNS(=O)(=O)c3ccccc3)c2)c(-c2ccnc(Nc3ccc(N4CCN(CCS(C)(=O)=O)CC4)c(F)c3)n2)s1`, for which the concentration for half-maximal inhibition (IC50) was in the range of 100 to 1000 nM.
`CC(C)c1nc(-c2cccc(NS(=O)(=O)c3c(F)cccc3F)c2)c(-c2ccnc(Nc3ccc(N4CCN5CCOC[C@H]5C4)nc3)n2)s1` yielded a half-inhibitory concentration (IC50) of 100 to 1000 nM.
On to `COc1cc(N2CCN(CCS(C)(=O)=O)CC2)c(C)cc1Nc1nccc(-c2sc(C(C)C)nc2-c2cccc(NS(=O)(=O)c3cccs3)c2)n1`, for which the half-maximal inhibitory concentration (IC50) is < 100 nM.
`CCc1nc(-c2cccc(CNS(=O)(=O)c3ccccc3)c2)c(-c2ccnc(Nc3ccc(N4CCN(C(C)=O)CC4)nc3)n2)s1` had an IC50 of 100 to 1000 nM.
On to `CC(C)c1nc(-c2cccc(NS(=O)(=O)c3c(F)cccc3F)c2)c(-c2ccnc(Nc3ccc(N4CCOCC4)nc3)n2)s1`, for which the IC50 was 100 to 1000 nM.
For the molecule `O=S(=O)(Nc1cccc(-c2ncsc2-c2ccnc(Nc3ccc(N4CCOCC4)nc3)n2)c1)c1c(F)cccc1F`, the IC50 was 100 to 1000 nM.
For the molecule `CC(=O)N1CCN(c2ccc(Nc3nccc(-c4sc(C(C)C)nc4-c4cccc(NS(=O)(=O)c5ccccc5F)c4)n3)cn2)CC1`, the IC50 was < 100 nM.
`CC(C)c1nc(-c2cccc(NS(=O)(=O)c3c(F)cccc3F)c2)c(-c2ccnc(Nc3ccc(N4CC[C@@H](O)C4)nc3)n2)s1` yielded an IC50 of 100 to 1000 nM.
In the case of `COc1cc(N2CCN(CCS(C)(=O)=O)CC2)c(C)cc1Nc1nccc(-c2sc(C(C)C)nc2-c2cccc(NS(=O)(=O)c3c(F)cccc3F)c2F)n1` it was < 100 nM; in that of `CC(C)c1nc(-c2cccc(NS(=O)(=O)c3c(F)cccc3F)c2)c(-c2ccnc(Nc3ccc(N4CCN(CCF)CC4)c(F)c3)n2)s1`, 100 to 1000 nM.
Consider `CC(=O)N1CCN(c2ccc(Nc3nccc(-c4sc(C(C)C)nc4-c4cccc(NS(=O)(=O)c5cc(F)ccc5F)c4)n3)cn2)CC1`, for which the IC50 was 100 to 1000 nM.
Take `COc1cc(N2CCN(CCS(C)(=O)=O)CC2)c(C)cc1Nc1nccc(-c2sc(N3CCOCC3)nc2-c2cccc(NS(=O)(=O)c3c(F)cccc3F)c2)n1`: the IC50 is < 100 nM.
As for `CC(C)c1nc(-c2ccc(F)c(NS(=O)(=O)c3ccccc3F)c2)c(-c2ccnc(Nc3ccc(N4CCN(CCS(C)(=O)=O)CC4)c(F)c3)n2)s1`, the half-maximal inhibitory concentration (IC50) lay in the range of 100 to 1000 nM.
`COc1cc(N2CCN(CCS(C)(=O)=O)CC2)c(C)cc1Nc1nccc(-c2sc(C3CC3)nc2-c2cccc(NS(=O)(=O)c3c(F)cccc3F)c2)n1` yielded an IC50 of 100 to 1000 nM.
`CC(C)c1nc(-c2cccc(NS(=O)(=O)c3ccccc3)c2)c(-c2ccnc(Nc3ccc(CC4CCN(CCS(C)(=O)=O)CC4)c(F)c3)n2)s1`: the IC50 is 100 to 1000 nM.
`CC(C)c1nc(-c2ccc(F)c(NS(=O)(=O)c3c(F)cccc3F)c2)c(-c2ccnc(Nc3cccc(CCS(N)(=O)=O)c3)n2)s1` returned an IC50 of 100 to 1000 nM.
For the molecule `COc1ccc(Nc2nccc(-c3sc(C(C)C)nc3-c3cccc(NS(=O)(=O)c4ccccc4)c3)n2)cc1N1CCN(CCC#N)CC1`, the IC50 is < 100 nM.
`CC(C)c1nc(-c2ccc(F)c(NS(=O)(=O)c3c(F)cccc3F)c2)c(-c2ccnc(Nc3ccc(N4CCN5CCOC[C@H]5C4)nc3)n2)s1` had an IC50 of 100 to 1000 nM.
In the case of `CC(C)c1nc(-c2ccc(F)c(NS(=O)(=O)c3c(F)cccc3F)c2)c(-c2ccnc(Nc3ccc(N4CCN(CCF)CC4)c(F)c3)n2)s1`, the IC50 fell in the range of 100 to 1000 nM.
